{"source": "patent US20110034466A1", "about": "“NOVEL FIVE-MEMBERED RING COMPOUND” (priority 2008, published 2011)", "key": {"[1]": {"system": "Corticosterone generation", "assay": "Assessment test of steroid hormone synthesis inhibition (Corticosterone generation in rat adrenal gland cells)", "assay_type": "cell-based", "details": "10 μM test article, rat adrenal cells with cAMP, 2 hours, read-out: Steroid Synthesis Inhibition Rate (%) (10 μM)", "text": "Assessment Test of Steroid Hormone Synthesis Inhibition\n• Cell Strainer (BD Falcon®) • Cell Titer-Glo® (Promega) • Collagenase from Clostridium histolyticum (Sigma-Aldrich) • Corticosterone EIA kit (Cayman) • Dimethylsulfoxide (referred to as DMSO hereinafter) (nacalai tesque) • D-MEM (GIBCO) • DNase I (Invitrogen) • Fetal Bovine Serums (referred to as FBS hereinafter) (Bioflud) • Multiple well plates for adhesive cell culture, 96 wells (IWAKI) • N^6,2′-O-Dibutyryladenosine 3′,5′-cyclic monophosphate sodium salt (referred to as cAMP hereinafter) (Sigma) • Penicillin Streptomycin Mixed Solution (nacalai tesque)\nControl examples 1 to 4: Control example 1 was Example 350 of Patent Document 2. Control examples 2 to 4 were synthesized according to Patent Document 2.\nAdrenal glands were taken out from rats, and removed excess connective tissues, adiposes and membranes in D-MEM. The adrenal glands were transferred to polytubes, and quickly segmentalized with scissors. Thereto was added D-MEM containing 1 mg/mL collagenase and 0.25 μL DNase 1, and then the mixture was shaken at 37° C. for 10 minutes in 80 times/minute. Then, the mixture was pipetted by 1 mL truncated pipette tip, and shaken again under the same condition. After 10 minutes, the mixture was pipetted again by 1 mL pipette tip, and the cell suspension was filtered through metal mesh. The filtrate was centrifuged at 4° C. for 5 minutes in 500 g. The supernatant was removed, and thereto was added a mixed solution of 0.16 M NH4Cl and 0.17 M Tris-HCl in 3 mL. The mixture was let stand on ice for 5 minutes, and then centrifuged under the same condition. Then, the supernatant was removed and then thereto was added D-MEM. The cell suspension was prepared and centrifuged under the same condition. Again, the supernatant was removed and then thereto was added D-MEM to give a cell suspension. The cell suspension was filtered by Cell Strainer (BD Falcon®). The filtrate was centrifuged under the same condition. After the completion of the centrifugation, the supernatant was removed, and thereto was added D-MEM containing 1% Penicillin Streptomycin Mixed Solution and 10% FBS. The mixture was seeded in Multiple well plate for adhesive cell culture, 96 wells (IWAKI) in 10000 cells/well, and incubated at 37° C. overnight in CO2 incubator.\nTest article concentrations were prepared in DMSO to 2000 μM, and D-MEM containing 20 μM test article in D-MEM was prepared.\nCell-seeded plate was incubated overnight, and then the medium was removed and thereto was added D-MEM containing 20 μM test article in 50 μL/well. Then, to the mixture was promptly added D-MEM containing 20 μM cAMP in 50 μL/well so that the final concentration of the test article was 10 μM. After the addition of 2 types of D-MEM, the mixture was incubated at 37° C. for 2 hours in CO2 incubator. After 2 hours, the supernatant (50 μL) of the medium was collected. For cells, the cell toxicity of the test article was assessed according to a conventional method using Cell Titer-Glo® (Promega). For the collected supernatant, the Corticosterone concentration in the supernatant was determined according to a conventional method using Corticosterone EIA kit (Cayman).\nThe inhibition rate of 10 μM test article to Corticosterone generation was calculated according to the following formula confirming that the cell toxicity by the test article was not recognized."}, "[2]": {"system": "Guinea pig late asthma model", "assay": "Guinea pig late asthma model (ovalbumin sensitized, respiratory function sRaw/TV)", "assay_type": "in vivo", "details": "3 mg/kg orally one hour before antigen challenge", "procedure": "Assessment of Compounds in Guinea Pig Late Asthma Model\nThe assessment was carried out using a compound obtained in Example 52.\nHartley male guinea pigs (commercially available from Japan SLC, Inc.) were pre-bred about 1 week after arrival, and then exposed by inhalation to 2% (w/v) ovalbumin (OA) saline in a plastic box (4 guniea pigs/box) for 5 minutes using a ultrasonic nebulizer (OMRON NE-U12, condition: maximum nebulizing amounts, maximum air volume), and sensitized (day 0). The same operation was carried out on day 7. On day 14 or 15, each guinea pig was administered 2% OA by inhalation for 5 minutes to initiate a response (challenge). […]\nA determination and analysis of respiratory function were carried out according to the method of Penny A. Hutson et al. Am Rev Respir Dis 1988 137, 548-557. The respiratory function was determined before the antigen challenge (before drug administration) and 5 minutes and 1, 2, 3, 4, 5, 6, 7 and 8 hours after the antigen challenge, and wave profiles were imported using MacLab Chart v3.4 (AD Instruments) and analyzed later. […] The sRaw/TV values subtracting the former values were plotted against measured times, and each area under the curve (AUC4-8 hr) of each animal was calculated to compare each other in the range of 4 to 8 hours after the antigen challenge. […]"}, "rat lung membrane SMBS": {"system": "rat lung membrane SMBS", "assay": "Receptor-binding assessment test using rat lung membranes ([125I]-iodocyanopindolol ligand binding assay)", "details": "1 μM test compound; ratio of inhibiting specific binding of [125I]-iodocyanopindolol to rat lung membrane SMBS", "procedure": "Receptor-Binding Assessment Test of Compounds Using Rat Lung Membranes\nThe assessment test was carried out according to the method of Sugasawa, T. et al., J. Biol. Chem., 272, 21244-21252 (1997).\nPreparation of Rat Lung Membranes\nLung taken out from SD male rat (7-week old under test, Charles River Laboratories Japan, Inc.) was removed trachea and blood vessels to shred and washed with iced tris-saline buffer (10 mM tris hydrochloric acid-154 mM sodium chloride, pH7.4). The resultant was homogenized by Hiscotron with ice-cold tris-saline buffer containing a homogenization buffer (1 mM ethylenediaminetetraacetic acid (EDTA), 1 mM 4-(2-aminoethyl)benzenesulfonyl fluoride (AEBSF), 5 μg/ml aprotinin, 5 μg/ml leupeptine) (maximum rate: 1 minute). The supernatant after low-speed centrifugation (1500×g, 20 minutes, 4° C.) was ultracentrifuged (100000×g, 20 minutes, 4° C.), and the pellet was suspended in tris-saline buffer to store at −80° C. The protein concentrations were determined by Bio-Rad Protein Assay Kit using bovine serum albumin (BSA) as a standard.\nTo each well in protein-nonabsorptive round-bottom 96-well assay plate (commercially available from Iwaki Glass Co., Ltd.) were added tris-saline buffer (200 μl) containing 1 nM [^125I]-iodocyanopindolol (commercially available from Amersham plc), 10 μM serotonine, 20 μm dl-propranolol, 10 μM phentolamine, 1.1 mM ascorbic acid and 100 μg lung membrane, and the mixture was pipetted to combine and then incubated at 37° C. for 30 minutes. The test compounds were dissolved in 100% dimethyl sulfoxide solution, and thereto was added 2 μl (final DMSO concentration: 1%). In order to calculate nonspecific binding amounts, to the mixture was added L-threo-3-(3,4-dihydroxyphenyl)-N-[3-(4-fluorophenyl)propyl]serine pyrrolidine amide at 100 μM of the final concentration as an alternative to the test compounds. During this time, 100 μl of 0.3% polyethyleneimine (PEI)/tris-saline buffer was added to MultiScreen plate (96-well B glass fiber, Millipore Cat. No. MAFB NOB10), and incubated for over 30 minutes. The resultant was filtered with aspiration (aspiration by the addition of 200 μl iced tris-saline buffer) to wash, and the reaction solutions on 96-well assay plate were filtered with aspiration to wash four times on MultiScreen plate. B glass fiber filter paper at the bottom of MultiScreen plate was punched out, and γ-ray doses of [^125I]-iodocyanopindolol trapped on the filter paper were determined as binding amounts. The binding amounts in the presence of DMSO (final concentration: 1%) were total binding amounts, and the binding amounts in the presence of 100 μM L-threo-3-(3,4-dihydroxyphenyl)-N-[3-(4-fluorophenyl)propyl]serine pyrrolidine amide were nonspecific binding amounts. The values subtracted the nonspecific binding amounts from the total binding amounts were the specific binding amounts. The binding activity of a compound was calculated according to the following formula, which was shown in the ratio of inhibiting the specific binding of [^125I]-iodocyanopindolol to rat lung membrane SMBS by the test compound."}}}
{"smiles": "CNC(=O)NCCn1c(-c2ccc(C(=O)N3CCOCC3)cc2)cs/c1=N\\c1cccc(F)c1", "note": "[Example 52, N-{2-[(2Z)-2-[(3-Fluorophenyl)imino]-4-[4-(morpholin-4-ylcarbonyl)phenyl]-1,3-thiazol-3(2H)-yl]ethyl}-N′-methylurea]", "values": [{"measurement": "inhibition at 10 µM", "setting": "[1]", "value": 0, "unit": "%"}, {"measurement": "AUC4-8 hr ((sRaw/TV) · h)", "setting": "[2]; 4 to 8 hours after antigen challenge", "value": "0.427 (sRaw/TV) · h"}, {"measurement": "Improvement Rate (%)", "setting": "[2]; AUC4-8 hr versus control group, p<0.01 Dunnett's test", "value": 54, "unit": "%"}, {"measurement": "Binding Activity (%) (1 μM)", "setting": "rat lung membrane SMBS", "value": 59, "unit": "%"}]}
